Laboratory results taken from patent US9956243B2, “Combination treatment for acute myeloid leukemia (AML)” (Hoffmann-La Roche Inc., priority 2013, dated 2018).

Assays:
[1] = system: MOLM-13-luc.c4 (AML) human AML cells; experiment: Antitumor efficacy and survival / increase in life span (ILS) in disseminated MOLM-13.luc.c4 AML model; assay type: in vivo, SCID beige mice; conditions: for tumor burden by BLI photon counts: 5 million cells, treatment from day 3, vs Vehicle-treated control mice (FIG. 1); for Median survival: vehicle control 20.5 days
Procedure: (§1) Female SCID beige mice (10/group), obtained from Charles River Laboratories (Wilmington, Del.) were used when they were approximately 8-12 weeks old and weighed approximately 20-25 grams. The health of the mice was assessed daily by gross observation and analyses of blood samples taken from sentinel animals housed on shared shelf racks. All animals were allowed to acclimate and recover from any shipping-related stress for a minimum of 72 hours prior to experimental use. Autoclaved water and irradiated food (5058-ms Pico Lab mouse chow, Purina Mills, Richmond, Ind.) were provided ad libitum, and the animals were maintained on a 12 hour light and dark cycle. Cages, bedding and water bottles were autoclaved before use and changed weekly. All animal experiments were conducted in accordance with the Guide for the Care and Use of Laboratory Animals, local regulations, and protocols approved by the Roche Animal Care and Use Committee in an AAALAC accredited facility.
Parental MOLM-13 human AML cells were stably transfected with Luc2 lentiviral particles for 24 hrs in the presence of Polybrene (8 ug/ml) and then selected in the presence of Blasticidin for 3 weeks. Subsequently, one clone was selected by single cell plating in the presence of 0.1 mg/mL G418 and was designated MOLM-13.luc.c4. The lentiviral Luc2 expression plasmid was constructed by incorporating Luc2 gene (Promega) in to pLOC lentiviral plasmid backbone (Thermo Fisher Scientific). Luc2 lentiviral particles were prepared by using Trans-Lentiviral Packaging System (Thermo Fisher Scientific) as recommended.
MOLM-13.luc.c4 was maintained with RPMI 1640 with L-glutamine (2 mM) media (GIBCO/Invitrogen, Carlsbad, Calif.) supplemented with 10% heat-inactivated Fetal Bovine Serum (HI-FBS; GIBCO/Invitrogen, Carlsbad, Calif.), and 1% 100 mM sodium pyruvate. Freshly dissociated MOLM13-Luc.c4 cells (1×106 or 5×106) suspended in Phosphate Buffered Saline (PBS) were then intravenously inoculated via the caudal tail vein into female SCID-beige mice.
It was then filtered thru a 0.22 micron filter into a septum sealed vial for intravenous administration. […] Stock cytarabine (Ara-C injection, 100 mg/ml) was diluted in sterile 0.9% sodium chloride to 44 mg/ml according to manufacturer's instructions and dosed at 200 mg/kg iv twice weekly.
Treatment duration was 3 weeks.
(§2) For increased life span (ILS) assessment, animal body weights were measured two to three times per week, and animals were monitored daily for any clinical signs of toxicity or excessive tumor burden (i.e. hind limb paralysis or morbidity). In addition, progression of disease was monitored by in vivo bioluminescent imaging (BLI) using IVIS® Spectrum system. For each BLI session, mice received 100 mg/kg D-luciferin (Caliper Life Sciences/Perkin-Elmer) via ip injections and were imaged at 20 min post luciferin injection at either a 5 s or a 10 s exposure time. Images were captured by the IVIS® Spectrum system and data were collected and analyzed with Living Image 4.2.0 software (Caliper Life Sciences, Hopkinton, Mass.). Total photon fluxes (ph/s) representing luciferase activity within each fixed region of interest (ROI) covering whole tumors of individual mice were determined. The actual images of mice are not disclosed herein.
Quantification of bioluminescence allowed for direct longitudinal comparison of tumor burden between treatment groups prior to surrogate death end points being reached. Tumor burden was graphically represented as the mean BLI photon flux+standard error of the mean (SEM), and median survival was determined utilizing Kaplan Meier survival analysis. Statistical analysis of comparisons between groups was analyzed by two-way ANOVA, and post-hoc Bonferroni test (GraphPad Prism, version 4.3). Differences between groups were considered to be significant when the probability value (p) was ≤0.05.

[2] = Ara-C 200 mg/kg 2x/week iv; 10 mice/group
Procedure: as §1, with “Cages, bedding and water bottles were autoclaved before use and changed weekly. All animal experiments were conducted in accordance with the Guide for the Care and Use of Laboratory Animals, local regulations, and protocols approved by the Roche Animal Care and Use Committee in an AAALAC accredited facility.” left out
as §2, with “For each BLI session, mice received 100 mg/kg D-luciferin (Caliper Life Sciences/Perkin-Elmer) via ip injections and were imaged at 20 min post luciferin injection at either a 5 s or a 10 s exposure time.” left out, “The actual images of mice are not disclosed herein.” left out

4-{[(2R,3S,4R,5S)-3-(3-Chloro-2-fluoro-phenyl)-4-(4-chloro-2-fluoro-phenyl)-4-cyano-5-(2,2-dimethyl-propyl)-pyrrolidine-2-carbonyl]amino}-3-methoxy-benzoic acid 1-mPEG-carbonyloxy-ethyl ester (mPEG, average MW, ˜2200) [compound I-B]
tumor burden by BLI photon counts [1]: significantly reduced photon counts
% ILS vs. Vehicle control ([1]; Cpd I-B 437 mg/kg q7d iv, p < 0.05 vs vehicle): 37%
% ILS vs. Vehicle control ([1]; Cpd I-B 437 mg/kg q7d iv, p < 0.05 vs vehicle, listed as Cpd I-B): *37%
Median survival ([1]; Cpd I-B 437 mg/kg q7d iv): 28 days

Nc1ccn([C@@H]2O[C@H](CO)[C@@H](O)[C@@H]2O)c(=O)n1 [Ara-C, cytarabine]
tumor burden by BLI photon counts [1]: no difference
% ILS vs. Vehicle control ([1]; Ara-C 200 mg/kg 2x/wk iv): 0%
Median survival ([1]; Ara-C 200 mg/kg 2x/wk iv): 20 days
monotherapy antitumor activity as assessed by tumor burden (BLI) or ILS [1]: lack of monotherapy activity
monotherapy antitumor activity as assessed by tumor burden (BLI) or ILS ([1]; listed as Cytarabine (Ara-C)): lack of antitumor activity
Mortality [2]: 0
